According to publication PMC10895678 (Journal of Medicinal Chemistry, 2024):
“And” between values parts separate entries of the source, which are not always exact repeats. Equal entries are not always repeated. Where two headings read alike, the source gives them in different places.

How the values were obtained:
[1] = Mouse PK, multiple oral dosing of single compounds; type: in vivo, KM mice; details: for half-life / AUC(0-inf) / Cmax / Tmax: 30 mg/kg
Source text: Methods for combined single dosing (BGAz001–005) and dosing of single compounds multiple times (BGAz004 and BGAz005) are described in detail in the Supporting Information (PK Data).
Report on PK results of BGAz-004 by multiple oral dosing
7 Materials and instrument combined dosing
An MS2 Turnover type oscillator was purchased from IKA Work’s Guangzhou (China), and a 5415R ChromatographicanalyseswereconductedusinganAgilent1290InfinityIIhighperformanceliquidchromatography andAgilentTechnologies6470TripleQuadLC/MS.Propranolol(≥90%inpurity,internalstandard,IS)waspurchased fromtheSigmaChemicalCo.(China).Formicacid(HPLCgrade)andmethanol(HPLCgrade)werepurchasedfrom DIKMACo.(China).Allchemicalsandsolventswereanalyticalgrade.WaterwaspurifiedusingaMillipore(AK,USA) laboratoryultra-purewatersystem(0.2μmfilter).
KMmice,weighing25–35g(BeijingVitalRiverLaboratoryAnimalTechnologyCo.,Ltd.,China)wereutilisedforthe studies.The protocols were approved by the Animal Care and Use Committee, GIBH. Animals were maintained on standard animal chow and waterad libitum, in a climate-controlled room (23±1 °C 30–70% relative humidity, a minimumof tenexchangesof roomairperhouranda12hlight/darkcycle)foroneweekpriortoexperiments.
9 Pharmacokinetic studies
Compound BGAz-004 were dissolved in the solution containing DMSO (2%), ethanol (4%), Cremophor EL (4%) and ddH2O (90%).The mice were given solution with 30 mg/kg bygastric gavagefor 3 days.Whole blood samples (100μL)wereobtainedfromtheorbitalvenousplexusatthefollowingtimepointsafterthethirddaydosing:5,15,30 min and 1, 3, 5, 8, 24 hour. Whole blood samples were collected in heparinised tubes. The plasma fraction was immediately separated by centrifugation. The mice were humanely euthanasia by carbon dioxide 24 hours after […]
10 Plasma sample analysis
10.1 Standard curve sample preparation
ThecompoundsweredissolvedinDMSO(2mg/mL)anddilutedwithtoseriesconcentration(methanol:H 2O,1:1,10 μL) and blank plasma (50 μL) were added to 1.5 mL tubes and vortexed for 3 min, then acetonitrile-containing internalstandard(150μL)wasaddedandvortexedforafurther5min,andsubsequentlyspuninacentrifugeat13000 […]
10.2 Plasma and preparation
Plasmasampleswerepreparedusingaproteinprecipitationmethod.Solution(10μL,methanolH 2O,1:1)andplasma samples(50μL)wereaddedto1.5mLtubesandvortexfor3min,thenacetonitrile-containinginternalstandard(150 μL)wasaddedandvortexfor5min,andsubsequentlyspuninacentrifugeat13000× gfor40minat4°C.
Aftercentrifugation,supernatant(100μL)wastransferto96wellplatesandanalysedbyLC-MS/MSusinganAgilent 1290InfinityIIHPLCandanAgilentTechnologies6470TripleQuadLC/MS.
Report on PK results of BGAz-005 by multiple oral dosing
13 Materials and instrument combined dosing […]
fromtheSigmaChemicalCo.(China).Formicacid(HPLCgrade)andmethanol(HPLCgrade)werepurchased from […]
15 Pharmacokinetic studies
Compound BGAz-005 were dissolved in the solution containing DMSO (2%), ethanol (4%), Cremophor EL (4%) […]
16 Plasma sample analysis
16.1 Standard curve sample preparation
16.2 Plasma and preparation

M. smegmatis = assay: Inhibition of macromolecular synthesis (radiolabeled precursor incorporation); type: cell-based, Mycobacterium smegmatis
Method: Inhibition of macromolecular biosynthesis was assayed by measuring the incorporation of radiolabeled precursors into DNA, RNA, protein, peptidoglycan, and fatty acids in the 10% trichloroacetic acid (TCA) extracts of cells exposed to azetidines. M. smegmatis were cultured in 7H9 media supplemented with 0.05% Tween-80 and grown to an OD600 of 0.4. Cultures (5 mL) were then transferred into sterile glass tubes and preincubated with 0× , 0.5× , 0.75× and 1 × MIC99 azetidines for 1 h at 37 °C with shaking. After preincubation, 10 μL of 500 nCi/μL [methyl-^3H]thymidine, 500 nCi/μL [5,6-^3H]uridine, 500 nCi/μL L-[4,5-^3H]leucine, 500 nCi/μL [^3H]meso-diaminopimelic acid, and 500 nCi/μL [^14C]acetic acid were added to cultures to measure synthesis of DNA, RNA, protein, peptidoglycan and lipids, respectively. All cultures were incubated for 36 h, and 100 μL samples were sacrificed at 6, 12, 24, and 36 h time points by the addition of 50 μL 30%TCA/70% ethanol in Eppendorf tubes. Tubes were incubated at room temperature for 60 min to allow for precipitation of macromolecular material. Samples were individually vacuum filtered using 0.025 μm membrane filters (VSWP01300, MF-Millipore) that were prewashed with 500 μL 70% ethanol. Samples were washed with 3 × 500 μL 5% TCA, followed by 2 × 95% ethanol. Filter papers were dried and combined with 5 mL of scintillation fluid before measuring radioactive counts.

BCG pTIC6-fbpC = type: cell-based, Mycobacterium bovis BCG
[2] = KM, mouse, plasma, multiple PO 30 mg/kg, times 3, mean of animals
[3] = multiple PO 30 mg/kg, times 3, mean of animals

SMILES: CNCC1CC(c2ccc(OC(F)(F)F)cc2)N1Cc1ccccc1OC(F)(F)F (stereo not drawn) [BGAz-005]
- half-life ([1]; KM, mouse, plasma, oral, mice, read-out: blood plasma half-life): > 72 h
- AUC(0-inf) ([1]; KM, mouse, plasma, po, multiple PO 30 mg/kg, times 3, mean of animals, read-out: AUC(0-∞)): 82200 ng·h/mL
- Cmax ([1]; KM, mouse, plasma, po, multiple PO 30 mg/kg, times 3, mean of animals, read-out: Cmax): 1710 ng/mL
- Tmax ([1]; KM, mouse, plasma, po, multiple PO 30 mg/kg, times 3, mean of animals, read-out: Tmax): 0.875 h
- half-life ([1]; KM, mouse, plasma, po, multiple PO 30 mg/kg, times 3, mean of animals, read-out: t1/2z (converted)): 80.4 h
- AUC(0-inf) ([1]; KM, mouse, plasma, po, multiple PO, times 3, 30 mg/kg, summary table, read-out: AUC(0-∞)): 82200 ng·h/mL
- Cmax ([1]; KM, mouse, plasma, po, multiple PO, times 3, 30 mg/kg, summary table, read-out: Cmax): 1710 ng/mL
- half-life ([1]; KM, mouse, plasma, po, multiple PO, times 3, 30 mg/kg, summary table, read-out: T1/2 (converted)): 80.4 h
- Tmax ([1]; KM, mouse, plasma, po, multiple PO, times 3, 30 mg/kg, summary table, read-out: Tmax): 0.875 h
- AUC(0-inf) ([1]; KM, mouse, plasma, po, multiple daily dosing 3 × 30 mg/kg PO, read-out: AUC0-inf): 82200 ng·h/mL
- Cmax ([1]; KM, mouse, plasma, po, multiple daily dosing 3 × 30 mg/kg PO, read-out: Cmax (Mouse, P.O.)): 1710 ng/mL
- half-life ([1]; KM, mouse, plasma, po, multiple daily dosing 3 × 30 mg/kg PO, read-out: T1/2 (Mouse, P.O.) (converted)): 80.4 h
- Tmax ([1]; KM, mouse, plasma, po, multiple daily dosing 3 × 30 mg/kg PO, read-out: Tmax (Mouse, P.O.)): 0.87 h
- concentration at 0.083 h ([1]; KM, mouse, plasma, multiple PO 30 mg/kg, times 3, 0.083 h): 1.97 µM and 858 ng/mL
- concentration at 0.25 h ([1]; KM, mouse, plasma, multiple PO 30 mg/kg, times 3, 0.25 h): 2.69 µM and 1170 ng/mL
- concentration at 0.5 h ([1]; KM, mouse, plasma, multiple PO 30 mg/kg, times 3, 0.5 h): 3.53 µM and 1540 ng/mL
- concentration at 1 h ([1]; KM, mouse, plasma, multiple PO 30 mg/kg, times 3, 1 h): 3.75 µM and 1630 ng/mL
- concentration at 3 h ([1]; KM, mouse, plasma, multiple PO 30 mg/kg, times 3, 3 h): 1.96 µM and 855 ng/mL
- concentration at 5 h ([1]; KM, mouse, plasma, multiple PO 30 mg/kg, times 3, 5 h): 714 ng/mL and 1.64 µM
- concentration at 8 h ([1]; KM, mouse, plasma, multiple PO 30 mg/kg, times 3, 8 h): 608 ng/mL and 1.4 µM
- concentration at 24 h ([1]; KM, mouse, plasma, multiple PO 30 mg/kg, times 3, 24 h): 570 ng/mL and 1.31 µM
- AUC [1, 2]: 16800 ng·h/mL
- AUC(0-t) [1, 2]: 16800 ng·h/mL
- CL/F ([1]; KM, mouse, plasma, multiple PO 30 mg/kg, times 3, mean of animals, read-out: CLz/F (converted)): 13.1 mL/min/kg
- MRT last ([1]; KM, mouse, plasma, multiple PO 30 mg/kg, times 3, mean of animals, read-out: MRT(0-t)): 10.3 h
- MRT inf ([1]; KM, mouse, plasma, multiple PO 30 mg/kg, times 3, mean of animals, read-out: MRT(0-∞)): 116 h
- Vd/F ([1]; KM, mouse, plasma, multiple PO 30 mg/kg, times 3, mean of animals, read-out: Vz/F): 34.4 L/kg
- k el ([1]; KM, mouse, plasma, multiple PO 30 mg/kg, times 3, mean of animals, read-out: λz (converted)): 1.42e-05 s⁻¹
- AUMC(0-t) [1, 3]: 172065.476 h*h*μg/L
- AUMC(0-∞) [1, 3]: 21124940.36 h*h*μg/L
- C_last [1, 3]: 394.2 ng/mL
- Cav [1, 3]: 699.901 ng/mL
- DF [1, 3]: 2.398
- R_AUC(t/∞) [1, 3]: 45.975%
- VRT(0-t) [1, 3]: 76.208 h^2
- VRT(0-∞) [1, 3]: 32368.115 h^2
- loss of lipid biosynthesis ([14C]-acetic acid incorporation) (M. smegmatis; 0.5 × MIC): ~50%
- loss of lipid biosynthesis ([14C]-acetic acid incorporation) (M. smegmatis; 1 × MIC): ~75%
- reduction of incorporation of [3H]-thymidine, [3H]-uridine, [3H]-leucine (M. smegmatis; 1 × MIC): 20%
- effect on incorporation of [3H]-thymidine, [3H]-uridine, [3H]-leucine (M. smegmatis; up to 0.75 × MIC): almost no effect
- BCG pTIC6-fbpC MIC (BCG pTIC6-fbpC): 50 µM
- increase in MIC upon overexpression of FbpC (BCG pTIC6-fbpC): two-fold increase
